Reference: patent US8742203B2, “Chemically Inducible Expression of Biosynthetic Pathways” (Metabolix, Inc., priority 2005, dated 2014)

Test system: 1I Arabidopsis plants
Experiment: PHB yield in 1I plants, foliar applications of tebufenozide
Type: in vivo, Arabidopsis thaliana
Text: The genes required for the complete PHB production pathway, a β-ketothiolase (thiolase), an NADPH-acetoacetyl-CoA reductase (reductase) and a PHA synthase (synthase), were individually placed under the control of the minimal ^35S ecdysone-inducible promoter, fused to a plastid targeting signal, and cloned into a pCAMBIA (Centre for Application of Molecular Biology to International Agriculture, Canberra, Australia) based multigene plasmid containing the chimeric ecdysone receptor (A. Martinez, C. Sparks, C. A. Hart, J. Thompson, I. Jepson, Plant J. 19: 97 (1999)). This three-gene inducible construct is designated 3I. The single-gene inducible construct designated 1I contained the thiolase gene under the control of the inducible promoter, but unlike the 3I construct, it expressed the reductase and synthase genes under the control of the constitutive 35S-C4PPDK promoter (W. Chiu et al. Curr. Biol. 6: 325 (1996)).
Further analysis of the 1I construct by screening an additional 235 T1 1I plants identified plants capable of producing 2.5% and 2.6% dwt PHB respectively, in the presence and absence of foliar applications of the inducing agent tebufenozide. The ability of this construct to promote PHB production in a non-inducible fashion was confirmed through analysis of 72 T2 offspring of the best T1 1I plant. […]

For CCc1ccc(C(=O)NN(C(=O)c2cc(C)cc(C)c2)C(C)(C)C)cc1 [tebufenozide], the “PHB produced by best plants” value (additional 235 T1 1I plants screened, in the presence of foliar tebufenozide) was 2.5 % dwt and the “Average PHB accumulated” value (treated T2 1I offspring of best T1 1I plant, in the presence of inducing agent) was 4.2±2.5 % dwt.
